Experimental data as given in publication PMC4872591, “An evaluation of Minor Groove Binders as anti-Trypanosoma brucei brucei therapeutics” (European Journal of Medicinal Chemistry, 2016).
pIC50: −log10 of the molar value. Where two headings read alike, the source gives them in different places.

System: Bloodstream form T. b. brucei (Lister 427)
Assay: Trypanosoma brucei brucei Alamar Blue assay
Format: cell-based
Settings: for IC50: read-out: IC50 against T. b. brucei
Protocol: IC50 values against trypanosomes were determined by Alamar Blue assay. […] After this time, 20 μL of resazurin dye (Sigma–Aldrich) solution at 0.49 mM was added. […] Output was plotted using the IC50 determination algorithm of Prism 5.0 software (GraphPad). Three independent experiments were carried out in duplicate for each compound.

[1] = Table 1, Alamar Blue, 48 h + 24 h, all standard deviations less than 2%, read-out: IC50 against Trypanosoma brucei brucei
[2] = Trypanosoma brucei, Table 1, Alamar Blue, 48 h + 24 h, all standard deviations less than 2%, read-out: IC50 against Trypanosoma brucei brucei
[3] = Trypanosoma brucei, Table S2 (supplement), T. b. brucei activity, read-out: IC50
[4] = Trypanosoma brucei, values in μM

| Compound | pIC50 [2] | pIC50 [3] | also measured |
| --- | --- | --- | --- |
| 2-{[(4-{[(4-{[Imino(4-methoxy-2-pyridinyl)methyl]amino}-1-methyl-1H-pyrrol-2-yl)carbonyl]amino}-1-methyl-1H-pyrrol-2-yl)carbonyl]amino}-5-isopropyl-N-[2-(4-morpholinyl)ethyl]-1,3-thiazole-4-carboxamide [Compound 5] | – | – | pIC50 [1]: < 4.12; IC50 (values in μM): > 75 µM |
| CC(C)n1cc(NC(=O)c2cc(NC(=O)c3cnc(Cl)c(Cl)c3)cn2C)cc1C(=O)Nc1cc(C(=O)NCCCN(C)C)n(C)c1 [Compound 6, 5,6-Dichloro-N-[5-({[5-({[5-({[3-(dimethylamino)propyl]amino}carbonyl)-1-methyl-1H-pyrrol-3-yl]amino}carbonyl)-1-isopropyl-1H-pyrrol-3-yl]amino}carbonyl)-1-methyl-1H-pyrrol-3-yl]nicotinamide] | 5.40 | – | – |
| Cn1cc(NC(=O)c2cc(NC(=O)c3cc4ccccc4cn3)cn2C)cc1C(=O)NCCN1CCOCC1 [Compound 14, N-[1-Methyl-5-({[1-methyl-5-({[2-(4-morpholinyl)ethyl]amino}carbonyl)-1H-pyrrol-3-yl]amino}carbonyl)-1H-pyrrol-3-yl]-3-isoquinolinecarboxamide] | 6.01 | 6.68 | – |
| N=C(N)c1ccc(/N=N/Nc2ccc(C(=N)N)cc2)cc1 [Diminazene, diminazene, reference compound] | – | – | IC50 (Trypanosoma brucei, values given in nM): 0.005 µM |
| CN(C)CCCNC(=O)c1cc(NC(=O)c2cc(NC(=O)c3cc4ccccc4cn3)cn2C)cn1C [Compound 15, N-[5-({[5-({[3-(Dimethylamino)propyl]amino}carbonyl)-1-methyl-1H-pyrrol-3-yl]amino}carbonyl)-1-methyl-1H-pyrrol-3-yl]-3-isoquinolinecarboxamide] | 5.66 | 6.01 | – |
| CN(C)CCCNC(=O)c1cc(NC(=O)c2cc(NC(=O)c3cc(NC(=N)c4cc5ccccc5cn4)cn3C)cn2C)cn1C [Compound 17, N-[5-({[3-(dimethylamino)propyl]amino}carbonyl)-1-methyl-1H-pyrrol-3-yl]-4-{[(4-{[imino(3-isoquinolinyl)methyl]amino}-1-methyl-1H-pyrrol-2-yl)carbonyl]amino}-1-methyl-1H-pyrrole-2-carboxamide] | 5.31 | – | – |
| Cn1cc(NC(=O)c2cc(NC(=O)c3ccc(/C=C/c4ccc(F)cc4)cc3)cn2C)cc1C(=O)NCCN1CCOCC1 [Compound 26, 4-({4-[(E)-2-(4-fluorophenyl)ethenyl]benzoyl}amino)-1-methyl-N-[1-methyl-5-({[2-(4-morpholinyl)ethyl]amino}carbonyl)-1H-pyrrol-3-yl]-1H-pyrrole-2-carboxamide] | 6.15 | – | – |
| Cn1cc(NC(=O)c2cc(NC(=O)c3ccc(/C=C/c4nc5ccccc5o4)cc3)cn2C)cc1C(=O)NCCN1CCOCC1 [Compound 16, 4-({4-[(E)-2-(1,3-benzoxazol-2-yl)ethenyl]benzoyl}amino)-1-methyl-N-[1-methyl-5-({[2-(4-morpholinyl)ethyl]amino}carbonyl)-1H-pyrrol-3-yl]-1H-pyrrole-2-carboxamide] | 6.10 | 5.66 | – |
| COc1cccc(/C=C/c2cccc(C(=O)Nc3cc(C(=O)Nc4nc(C(=O)NCCCN(C)C)c(CCC(C)C)s4)n(C)c3)c2)c1 [Compound 12, N-[3-(Dimethylamino)propyl]-5-isopentyl-2-({[4-({3-[(E)-2-(3-methoxyphenyl)ethenyl]benzoyl}amino)-1-methyl-1H-pyrrol-2-yl]carbonyl}amino)-1,3-thiazole-4-carboxamide] | 6.74 | 6.55 | – |
| COc1ccc(/C=C/c2ccc3cc(C(=O)Nc4cc(C(=O)Nc5cc(C(=O)NCCN6CCOCC6)n(C)c5)n(C)c4)ccc3n2)cc1 [Compound 30, 2-[(E)-2-(4-Methoxyphenyl)ethenyl]-N-[1-methyl-5-({[1-methyl-5-({[2-(4-morpholinyl)ethyl]amino}carbonyl)-1H-pyrrol-3-yl]amino}carbonyl)-1H-pyrrol-3-yl]-6-quinolinecarboxamide] | 6.20 | – | – |
| COc1cccc(C(=N)Nc2cc(C(=O)Nc3cc(C(=O)Nc4cc(C(=O)NCCCN5CCOCC5)n(C)c4)n(C)c3)n(C)c2)c1 [Compound 9, 4-{[(4-{[imino(3-methoxyphenyl)methyl]amino}-1-methyl-1H-pyrrol-2-yl)carbonyl]amino}-1-methyl-N-[1-methyl-5-({[3-(4-morpholinyl)propyl]amino}carbonyl)-1H-pyrrol-3-yl]-1H-pyrrole-2-carboxamide] | < 4.12 | – | IC50 [4]: > 75 µM |
| CC(C)CCc1sc(NC(=O)c2cc(NC(=O)c3cc(/C=C/c4ccc([N+](=O)[O-])cc4)cn3C)cn2C)nc1C(=O)NCCCN(C)C [Compound 13, N-[3-(dimethylamino)propyl]-5-isopentyl-2-[({1-methyl-4-[({1-methyl-4-[(E)-2-(4-nitrophenyl)ethenyl]-1H-pyrrol-2-yl}carbonyl)amino]-1H-pyrrol-2-yl}carbonyl)amino]-1,3-thiazole-4-carboxamide] | 6.68 | 6.74 | – |
| Cn1cc(NC(=O)c2cc(NC(=O)c3cc(NC(=O)c4ccc(Cl)cc4Cl)cn3C)cn2C)cc1C(=O)NCCCN1CCOCC1 [Compound 25, 4-[(2,4-Dichlorobenzoyl)amino]-1-methyl-N-[1-methyl-5-({[1-methyl-5-({[3-(4-morpholinyl)propyl]amino}carbonyl)-1H-pyrrol-3-yl]amino}carbonyl)-1H-pyrrol-3-yl]-1H-pyrrole-2-carboxamide] | 5.64 | 6.10 | – |
| 4-(Formylamino)-1-methyl-N-[1-methyl-5-({[1-methyl-5-({[2-(4-morpholinyl)ethyl]amino}carbonyl)-1H-pyrrol-3-yl]amino}carbonyl)-1H-pyrrol-3-yl]-1H-pyrrole-2-carboxamide [Compound 4] | – | – | pIC50 [1]: 4.32 |
| Cn1cc(NC(=O)c2cc(NC(=O)c3cc(NC(=O)c4ccc(Cl)cc4Cl)cn3C)cn2C)cc1C(=O)NCCN1CCOCC1 [Compound 3, 4-[(2,4-Dichlorobenzoyl)amino]-1-methyl-N-[1-methyl-5-({[1-methyl-5-({[2-(4-morpholinyl)ethyl]amino}carbonyl)-1H-pyrrol-3-yl]amino}carbonyl)-1H-pyrrol-3-yl]-1H-pyrrole-2-carboxamide] | 6.40 | – | – |
| COc1cccc(/C=C/c2ccc(C(=O)Nc3cc(C(=O)Nc4nc(C(=O)NCCCN(C)C)c(CCC(C)C)s4)n(C)c3)cc2)c1 [Compound 11, N-[3-(dimethylamino)propyl]-5-isopentyl-2-({[4-({4-[(E)-2-(3-methoxyphenyl)ethenyl]benzoyl}amino)-1-methyl-1H-pyrrol-2-yl]carbonyl}amino)-1,3-thiazole-4-carboxamide] | 6.55 | 6.52 | – |
| CC(C)CCc1sc(NC(=O)c2cc(NC(=O)c3ccc(/C=C/c4ccc5ccccc5n4)cc3)cn2C)nc1C(=O)NCCN1CCOCC1 [Compound 23, 5-isopentyl-2-({[1-methyl-4-({4-[(E)-2-(2-quinolinyl)ethenyl]benzoyl}amino)-1H-pyrrol-2-yl]carbonyl}amino)-N-[2-(4-morpholinyl)ethyl]-1,3-thiazole-4-carboxamide] | 6.21 | – | – |
| CN(C)CCCNC(=O)c1cc(NC(=O)c2cc(NC(=O)c3cc(NC(=N)c4ccccc4)cn3C)cn2C)cn1C [Compound 1, N-[5-({[5-({[3-(Dimethylamino)propyl]amino}carbonyl)-1-methyl-1H-pyrrol-3-yl]amino}carbonyl)-1-methyl-1H-pyrrol-3-yl]-4-{[imino(phenyl)methyl]amino}-1-methyl-1H-pyrrole-2-carboxamide] | < 4.12 | – | IC50 [4]: > 75 µM |
